Reference: the NIST ThermoML archive (doi:10.1021/acs.jced.6b00688)

Test: xn = mol fraction of the nth substance listed
Conditions: 100 kPa, Liquid; for viscosity: Falling or rolling sphere viscometry; for mass density: Vibrating tube method

CCCCCCCO [heptan-1-ol] + CCCCCCCCCCCC
Conditions | mass density, 293.15 K [kg/m3] | mass density, 298.15 K [kg/m3] | mass density, 303.15 K [kg/m3] | mass density, 308.15 K [kg/m3] | viscosity, 293.15 K [mPa·s] | viscosity, 298.15 K [mPa·s] | viscosity, 303.15 K [mPa·s] | viscosity, 308.15 K [mPa·s] | viscosity, 313.15 K [mPa·s]
x2 = 0.0998 | 810.76 | 807.24 | 803.68 | 800.09 | 5.346 | 4.555 | 3.91 | 3.381 | 2.94
x2 = 0.2005 | 800.65 | 797.07 | 793.46 | 789.82 | 4.224 | 3.626 | 3.144 | 2.745 | 2.412
x2 = 0.302 | 791.28 | 787.66 | 784.02 | 780.35 | 3.358 | 2.917 | 2.559 | 2.26 | 2.009
x2 = 0.3991 | 783.4 | 779.77 | 776.11 | 772.42 | 2.778 | 2.444 | 2.168 | 1.935 | 1.736
x2 = 0.4989 | 776.02 | 772.37 | 768.69 | 765 | 2.363 | 2.098 | 1.878 | 1.69 | 1.528
x2 = 0.5994 | 769.4 | 765.74 | 762.06 | 758.35 | 2.052 | 1.837 | 1.655 | 1.5 | 1.365
x2 = 0.6975 | 763.54 | 759.88 | 756.19 | 752.48 | 1.835 | 1.653 | 1.498 | 1.364 | 1.247
x2 = 0.7959 | 758.2 | 754.54 | 750.85 | 747.14 | 1.677 | 1.516 | 1.38 | 1.262 | 1.158
x2 = 0.8984 | 753.19 | 749.53 | 745.85 | 742.15 | 1.538 | 1.397 | 1.276 | 1.172 | 1.08
